Test results: US20260041093A1, “Ionic Derivatives Of Aromatic Carboxylic Acid For Use As Plant Stimulants, Method For Stimulating Plants And Use Of These Derivatives For Manufacturing Compositions For Stimulating Plants” (FUNDACJA UNIWERSYTETU IM. ADAMA MICKIEWICZA W POZNANIU, priority 2022, published 2026)
Read-outs that look alike come from different tables or passages of the source.

Experiments:
[1] = system: tomato; assay: Greenhouse tomato sprayed three times: yield, health-promoting substances, leaf chlorophyll (Example 2); type: in vivo; details: 80 mg/L, benzothiadiazole salt 30 mg/L, chitosan lactate 50 mg/L; for Chlorophyll content (SPAD), Treatment #1: before treatment #1; for Chlorophyll content (SPAD), Treatment #2: before treatment #2; for Chlorophyll content (SPAD), Treatment #3: before treatment #3; for Average fruit weight per plant / Average weight of marketable fruit / Commercial yield / Number of fruits per plant / Total yield: spray 3x; for Calcium / Lycopene / Magnesium / Vit. C / Vit. E / °Brix (sugar content of the liquid expressed in degree of Brix): tomato fruits
Procedure: Biostimulant properties were evaluated for the following stimulants: […] The evaluation of stimulant properties included the influence of tested substances on tomato yield, content of health-promoting substances in yield and chlorophyll content in tomato leaves. […] The untreated control plants were sprayed with distilled water. During the experiment, total yield weight, commercial and non-commercial yield and average commercial fruit weight, number of fruits per plant and average fruit weight per plant were evaluated. […] Chlorophyll was measured before each treatment and one day after each treatment using Minolta's SPAD-502 chlorophyll meter.

[2] = system: bell pepper; assay: Bell pepper seedlings in pots sprayed: height, fresh and dry weight (Example 5); type: in vivo
Procedure: Pepper seedlings were planted into pots with peat substrate (P9 pots having 0,5 l). Pots were placed in greenhouse and cultivated for a 1 month. […] Plants treated with water only were the untreated control. During the course of the experiment, the height of the plants was measured, and at the end the fresh and dry weight of the aboveground part was evaluated.

[3] = system: winter wheat; details: for increase in calcium uptake / increase in gluten content of wheat grain / increase in magnesium uptake / increase in nitrogen uptake / increase in phosphorus uptake / increase in potassium uptake / increase in protein content of wheat grain / fresh weight of aboveground part higher than control / dry root mass higher than control / fresh root mass higher than control / dry weight of aboveground part higher than control / more aboveground biomass, BBCH 55 treatment compared to control / more aboveground biomass, BBCH 55 treatment compared to plants sprayed at an earlier stage / more root biomass, BBCH 55 treatment compared to control / more root biomass, BBCH 55 treatment compared to plants sprayed at an earlier stage: 80 mg/L, benzothiadiazole salt 30 mg/L; for SPAD chlorophyll readings versus control: first term, stimulant at BBCH 32, with or without fungicide; for more aboveground biomass, BBCH 55 treatment compared to control / more aboveground biomass, BBCH 55 treatment compared to plants sprayed at an earlier stage / more root biomass, BBCH 55 treatment compared to control / more root biomass, BBCH 55 treatment compared to plants sprayed at an earlier stage: last sampling date, late milk; for fresh and dry root weight versus other experimental facilities / fresh and dry matter yields versus other experimental facilities: second sampling date; for fresh and dry matter yields versus other experimental facilities: end of heading; for SPAD chlorophyll readings: second term, stimulant at BBCH 32 without fungicide versus other objects; for chlorophyll content of wheat leaves versus control: third term, with or without fungicide
Procedure: The experiment was established using the long strip method, in four repetitions Gross area of each plot was 48 m^2, while the harvest area was 23.25 m^2 net. Following variants of treatment were tested: • 1. Control—no stimulant application, standard fungicide programme • 2. Stimulant application at BBCH 32, standard fungicide programme • 3. Stimulant application at BBCH 32, no fungicide application • 4. Stimulant application at BBCH 55 and 10-12 days later, standard fungicide programme • 5. […] In this experiment, standard NPK fertilization was applied, using both bulk and liquid fertilizers.
The experiment was established using the long strip method, in four repetitions Gross area of each plot was 48 m2, while the harvest area was 23.25 m2 net. Following variants of treatment were tested: • 1. Control—no stimulant application, standard fungicide programme, • 2. Stimulant application at BBCH 32, standard fungicide programme • 3. Stimulant application at BBCH 32, no fungicide application • 4. Stimulant application at BBCH 55 and 10-12 days later, standard fungicide programme • 5. […] In the experiment, uniform NPK fertilization was applied, using both bulk and liquid fertilizers.

[4] = system: apple trees (M9 rootstocks); details: 4 sprays at 14-day intervals; 3-chlorosalicylate 100 mg/L, benzothiadiazole salt 25 mg/L
From the text: Flowers were counted during the experiment, and the number of shoots and leaves in the fall.

[5] = system: lettuce; details: 3-chlorosalicylate 100 mg/L double application, benzothiadiazole salt 50 mg/L single application; for Head weight, 4° C.: night temperature 4° C.; for Head weight, 12° C.: night temperature 12° C.; for Head weight, 20° C.: night temperature 20° C.
Procedure: The purpose of the study was to determine the effect of foliar spraying with test solutions on lettuce plants (Lactuca sativa L. ‘Zeralda’) under abiotic stress conditions—low temperature. After 7 and 14 days after transplanting the plants to a permanent place, spraying of the plants was carried out. […] After another 7 days, low temperature stress was induced—plants were grown in three glass chambers with a day temperature of 22° C. and night temperatures of 4, 12 and 20° C. until harvest.

[6] = 3-chlorosalicylate 80 mg/L, benzothiadiazole salt 30 mg/L
[7] = BBCH 32, standard fungicide protection
[8] = BBCH 55, standard fungicide protection
[9] = first sampling date (beginning of shooting), first of two sprayed objects (with / without fungicide, respectively)
[10] = first sampling date, first of two sprayed objects
[11] = first sampling date, second of two sprayed objects (with / without fungicide, respectively)
[12] = first sampling date, second of two sprayed objects

## C[N+](C)(C)CCO.O=C([O-])c1cccc2nnsc12
[1]
  Chlorophyll content (SPAD), a day after treatment #1: 63.5 b
  Chlorophyll content (SPAD), a day after treatment #2: 61.3 b
  Chlorophyll content (SPAD), a day after treatment #3: 63.2 b
  Chlorophyll content (SPAD), Treatment #1: 51.2 a
  Chlorophyll content (SPAD), Treatment #2: 51.4 a
  Chlorophyll content (SPAD), Treatment #3: 51.1 a
  Average fruit weight per plant: 148.70 b g
  Average weight of marketable fruit: 26.13 b kg/m^2
  Commercial yield: 18.13 b kg/m^2
  Number of fruits per plant: 4.17 b
  Total yield: 18.83 b kg/m^2
  Calcium: 91.4 a mg/kg
  Lycopene: 36.5 b mg/kg
  Magnesium: 106.3 b mg/kg
  Vit. C: 200.1 c mg/kg
  Vit. E: 25.9 b mg/kg
  °Brix (sugar content of the liquid expressed in degree of Brix): 5.92 b g
[2]; 20 mg/L
  Average dry mass: 13.3 c g
  Average fresh mass: 94.6 c g
  Average plant height, initial height, before first treatment: 43.5 b mm
  Average plant height, second treatment: 150.8 b mm
  Average plant height, third treatment: 226.6 c mm
  Plant height increase: 183.1 c mm
[2]; [6]
  Average dry mass: 15.6 g·days
  Average fresh mass: 115.5 g·days
  Average plant height, initial height, before first treatment: 39.9 a mm
  Average plant height, second treatment: 142.9 a mm
  Average plant height, third treatment: 270.8 d mm
  Plant height increase: 230.9 d mm
[3]; [7]
  increase in calcium uptake: 7%
  increase in gluten content of wheat grain: 9%
  increase in magnesium uptake: 8%
  increase in nitrogen uptake: 7%
  increase in phosphorus uptake: 9%
  increase in potassium uptake: 7%
  increase in protein content of wheat grain: 12%
[3]; BBCH 32, stimulant only
  increase in calcium uptake: 7%
  increase in gluten content of wheat grain: 8%
  increase in magnesium uptake: 9%
  increase in nitrogen uptake: 8%
  increase in phosphorus uptake: 9%
  increase in potassium uptake: 8%
  increase in protein content of wheat grain: 11%
[3]; [8]
  increase in calcium uptake: 12%
  increase in gluten content of wheat grain: 10%
  increase in magnesium uptake: 11%
  increase in nitrogen uptake: 12%
  increase in phosphorus uptake: 11%
  increase in potassium uptake: 7%
  increase in protein content of wheat grain: 12%
[3]; BBCH 55, without fungicide
  increase in calcium uptake: 8%
  increase in gluten content of wheat grain: 9%
  increase in magnesium uptake: 10%
  increase in nitrogen uptake: 15%
  increase in phosphorus uptake: 11%
  increase in potassium uptake: 6%
  increase in protein content of wheat grain: 11%
[3]; [9]
  fresh weight of aboveground part higher than control: 11%
[3]; first sampling date
  dry root mass higher than control: 14%
  fresh root mass higher than control: 12%
[3]; [10]
  dry weight of aboveground part higher than control: 10%
[3]; [11]
  fresh weight of aboveground part higher than control: 14%
[3]; [12]
  dry weight of aboveground part higher than control: 14%
[3]
  SPAD chlorophyll readings versus control: significantly higher
  more aboveground biomass, BBCH 55 treatment compared to control: 30%
  more aboveground biomass, BBCH 55 treatment compared to plants sprayed at an earlier stage: 13%
  more root biomass, BBCH 55 treatment compared to control: 21%
  more root biomass, BBCH 55 treatment compared to plants sprayed at an earlier stage: 14%
  fresh and dry root weight versus other experimental facilities: comparable
  fresh and dry matter yields versus other experimental facilities: comparable
  SPAD chlorophyll readings: highest
  chlorophyll content of wheat leaves versus control: significantly higher
[4]
  Average number of flowers per plant: 31.1 b
  Average number of leaves per plant: 47.1 b
  Average number of shoots per plant: 6.5 b
[5]
  Head weight, 4° C.: 47.6 b g/plant
  Head weight, 12° C.: 54.9 b c g/plant
  Head weight, 20° C.: 65.1 b g/plant

## C[N+](C)(C)CCO.O=C([O-])c1cccc(Cl)c1O [choline 3-chlorosalicylate]
[1]
  Chlorophyll content (SPAD), a day after treatment #1: 61.4 b
  Chlorophyll content (SPAD), a day after treatment #2: 60.3 b
  Chlorophyll content (SPAD), a day after treatment #3: 62.5 b
  Chlorophyll content (SPAD), Treatment #1: 50.2 a
  Chlorophyll content (SPAD), Treatment #2: 49.4 a
  Chlorophyll content (SPAD), Treatment #3: 50.9 a
  Average fruit weight per plant: 154.23 b g
  Average weight of marketable fruit: 26.25 b kg/m^2
  Commercial yield: 18.4 b kg/m^2
  Number of fruits per plant: 4.30 b
  Total yield: 19.13 b kg/m^2
  Calcium: 97.2 a mg/kg
  Lycopene: 36.4 b mg/kg
  Magnesium: 104.5 b mg/kg
  Vit. C: 191.5 c mg/kg
  Vit. E: 25.6 b mg/kg
  °Brix (sugar content of the liquid expressed in degree of Brix): 5.91 b g
[2]; [6]
  Average dry mass: 12.2 b g
  Average fresh mass: 85.7 b g
  Average plant height, initial height, before first treatment: 41.5 a mm
  Average plant height, second treatment: 161.8 c mm
  Average plant height, third treatment: 221.5 b mm
  Plant height increase: 180.0 b mm
[3]; [7]
  increase in calcium uptake: 4%
  increase in gluten content of wheat grain: 8%
  increase in magnesium uptake: 4%
  increase in nitrogen uptake: 7%
  increase in phosphorus uptake: 8%
  increase in potassium uptake: 6%
  increase in protein content of wheat grain: 10%
[3]; BBCH 32, stimulant only
  increase in calcium uptake: 6%
  increase in gluten content of wheat grain: 7%
  increase in magnesium uptake: 5%
  increase in nitrogen uptake: 7%
  increase in phosphorus uptake: 9%
  increase in potassium uptake: 8%
  increase in protein content of wheat grain: 8%
[3]; [8]
  increase in calcium uptake: 4%
  increase in gluten content of wheat grain: 9%
  increase in magnesium uptake: 5%
  increase in nitrogen uptake: 14%
  increase in phosphorus uptake: 12%
  increase in potassium uptake: 6%
  increase in protein content of wheat grain: 11%
[3]; BBCH 55, without fungicide
  increase in calcium uptake: 5%
  increase in gluten content of wheat grain: 8%
  increase in magnesium uptake: 6%
  increase in nitrogen uptake: 16%
  increase in phosphorus uptake: 12%
  increase in potassium uptake: 5%
  increase in protein content of wheat grain: 10%
[3]; [9]
  fresh weight of aboveground part higher than control: 12%
[3]; first sampling date
  dry root mass higher than control: 19%
  fresh root mass higher than control: 15%
[3]; [10]
  dry weight of aboveground part higher than control: 11%
[3]; [11]
  fresh weight of aboveground part higher than control: 17%
[3]; [12]
  dry weight of aboveground part higher than control: 16%
[3]
  SPAD chlorophyll readings versus control: significantly higher
  more aboveground biomass, BBCH 55 treatment compared to control: 31%
  more aboveground biomass, BBCH 55 treatment compared to plants sprayed at an earlier stage: 12%
  more root biomass, BBCH 55 treatment compared to control: 25%
  more root biomass, BBCH 55 treatment compared to plants sprayed at an earlier stage: 17%
  fresh and dry root weight versus other experimental facilities: comparable
  fresh and dry matter yields versus other experimental facilities: comparable
  SPAD chlorophyll readings: higher
  chlorophyll content of wheat leaves versus control: significantly higher
[4]
  Average number of flowers per plant: 30.3 b
  Average number of leaves per plant: 45.3 b
  Average number of shoots per plant: 6.7 b
[5]
  Head weight, 4° C.: 48.9 b g/plant
  Head weight, 12° C.: 52.8 b g/plant
  Head weight, 20° C.: 65.3 b g/plant
